In patent US20210275562A1, “CANCER TREATMENT METHODS” (priority 2020, published 2021):

Legend:
S phase cells = assay: BRDU/EDU injection labelling of S phase cells in living animals; type: in vivo, mouse
Source text: It has been estimated in the literature that the cell cycle would be between 12 hr and 2 days in the crypt cells of the gut. These are the cells that are constantly dividing and give rise to mature gut cells forming the lining of the intestinal tract. […] Both EDU and BRDU are incorporated only into DNA of cells actively synthesizing DNA, S phase cells. Both are rapidly removed from circulation if not incorporated into DNA, so that a cell containing EDU or BRDU in its DNA would have been in S phase at the time of injection, or shortly thereafter. Indeed, an injection of either marker is effectively a 1 hr pulse with that marker. BRDU is identified with an antibody stain, while EDU is identified by a separate chemical stain. Different fluorochromes are used to identify the two stains, so that cells which incorporated either, or both, can readily be identified. With the use of our image analysis approach, the labeling with each fluorochrome can be accurately quantitated.
Thus, with EDU and BRDU, it was possible to determine which cells had been in S phase at two different times. BRDU was normally injected intraperitoneally (IP) into animals at time zero. […] 40 minutes following the EDU injection the animals were euthanized and tissues collected, imbedded in paraffin, and stained. It was possible to tell which cells had been in S phase at the beginning of the experiment from the BRDU stain. […]

crypt cells = assay: Proof of principle: two EDU injections in mice given BRDU in drinking water; type: in vivo, mouse
Protocol: The experiment to validate this procedure was designed as follows: Mice were given BRDU in their drinking water at the beginning of the experiments. This constant supply of BRDU would label all proliferative cells over the length of the experiment. 4 hr after BRDU-containing drinking water was given to the animals, two injections of EDU were given. These injections were spaced 5, 8, 11, 14, 17, and 20 hr apart in separate animals. At 40 min following the final injection tissue was collected, fixed, imbedded, stained, and analyzed as described above. The goal was to determine how many cells were labeled with BRDU and NOT WITH EDU. EDU in this experiment represents the toxic treatment. Any cell labelled with EDU would be expected to be killed by the appropriate S phase specific toxin. The surviving cells would, therefore, be identified by BRDU positive, EDU negative cells. As with many proof of principle experiments, this one has a drawback that must be considered. BRDU remains present in cells that differentiate and move up the villi towards the lumen of the gut. Cells on the verge of terminal differentiation would be labelled with BRDU but cease dividing prior to the administration of EDU. This would result in an over-estimate of the number of BRDU+ and EDU− cells (those that survive the treatments), particularly at later times in the analysis. […]

| Structure (SMILES) | effective pulse length of the marker after one injection (S phase cells; mouse, in vivo) [h] | BRDU positive cells remaining unlabeled with EDU (cells proposed to survive treatment) (crypt cells; two EDU injections spaced 14 hr apart) [%] | level of BRDU+ and EDU- cells (cells proposed to survive treatment) (crypt cells; two EDU injections spaced 17 hr apart, may be overestimated) | effective pulse length of the marker after one injection (S phase cells; rapidly removed from circulation if not incorporated into DNA) [h] |
| --- | --- | --- | --- | --- |
| O=c1[nH]c(=O)n([C@H]2C[C@H](O)[C@@H](CO)O2)cc1Br [BRDU, bromodeoxyuridine] | 1 |  |  |  |
| C#Cc1cn([C@H]2C[C@H](O)[C@@H](CO)O2)c(=O)[nH]c1=O [EDU, 5-ethynyl-2′-deoxyuridine] |  | ~40 | remain high | 1 |
